Key:
[1] = In vivo electrokinetic infusion via hollow fiber probe, volume of distribution; settings: rat striatum, 25 μA, 45 minutes
Text: In the experiments described below, the distal end of the hollow fiber catheter was a hollow fiber having a 280 μm inside and 360 μm outside diameter, and a length of 3-4 mm (724). A 10- or 15-cm long fused silica catheter ([…] and 670 μm outside diameters, 720) directs fluid to the hollow fiber probe. The 100 μm inside diameter infusion catheter 720 was filled with the fluorophore solution of interest, as detailed below, in a glucose-free HEPES-buffered salt solution (GF-HBSS), containing in mM: 143.4 NaCl, 5 HEPES, 5.4 KCl, 1.2 MgSO4, 1.2 NaH2PO4, and 2.0 CaCl2. The probe was placed in a vial containing the same solution (704) through a septum. […]
After the electrokinetic infusion period, the rats underwent rapid transcardial perfusion with 250 mL of 8% cold paraformaldehyde in phosphate buffer solution. […] Vibratome sectioning was quantitative, with no discarded tissue between slices with a visible fluorophore spot. […] The 200 μm thick coronal slices were mounted onto glass slides and imaged with an inverted fluorescence microscope.
The volumes of distribution from the infusions were determined by measuring the fluorescence intensities in each coronal slice. The fluorescent area in each image was determined by counting pixels above a threshold value dictated by the noise level in the background (nonfluorescent portion of the image). […]

[2] = Electrophoretic mobility of infusates; format: physicochemical; settings: N = 3
Text: As noted above, three solutes of varying molecular weight and electrophoretic mobilities were utilized for in vivo infusions. BODIPY labeled 10 kDa dextran (B10) and TR70 were selected because of their dissimilar molecular weights, their ability to be resolved spectroscopically, and their small electrophoretic mobilities, as shown in Table 1 below (Vd at 10% of I0 calculated as in paragraph 25). The electrophoretic mobility is the ratio of the velocity that a molecule adopts in the presence of an electric field of a particular magnitude. For comparison, the electroosmotic mobility is the velocity that the fluid adopts in the presence of an electric field. The […] is directly proportional to the magnitude of the zeta potential governing the electroosmotic flow which we estimate to be −22.8 mV (Guy, Y. et al., “Determination of zeta-potential in rat organotypic hippocampal cultures.” Biophysical Journal, (2008) 94: 4561-9; Guy et al., “Determination of Zeta-Potential and Tortuosity in Rat Organotypic Hippocampal Cultures from Electroosmotic Velocity Measurements under Feedback Control.” Anal. Chem. (2009) 81:3001-7, both of which are hereby incorporated by reference). The electroosmotic mobility of the extracellular fluid in brain is 1.7×10^−8 m^2/Vs. This is much larger than the electrophoretic mobilities of the two fluorescent dextrans in Table 1. […]

[3] = In vivo electrokinetic infusion via open tube catheter, volume of distribution; settings: rat thalamus, 25.0 μA for 45 minutes
Protocol: Male Sprague-Dawley rats, with weights ranging from 260 to 290 g, were anesthetized with isoflurane, and wrapped in a 37° C. homeothermic blanket. An incisor bar was set at 0 mm at the interaural line. Rats underwent aseptic stereotactic surgery, whereby bilateral craniotomies were made to position an infusion catheter and counter catheter into the thalami bilaterally (from bregma: 4.0 mm lateral, 1.3 mm posterior, and 5.0 mm below the dura) for volumetric analysis. The capillaries were also implanted into the hippocampi bilaterally (from bregma: 4.0 mm lateral, 1.3 mm posterior, and 2.5 mm below the dura). […]
After the electrokinetic infusion period, the rats underwent rapid transcardial perfusion with 250 mL of 8% cold paraformaldehyde in PBS. […] Vibratome sectioning was quantitative, with no discarded tissue between slices with a visible fluorophore spot. […] The 300 μm thick coronal slices were mounted onto glass slides and imaged with an inverted fluorescence microscope. Image sequences were acquired and the fluorescent intensity was measured.
The volumes of distribution from the infusions were determined by evaluating the fluorescence intensities amongst the coronal tissue slices. The overall maximum fluorescence intensity (I0) at the infusion catheter implantation site was determined for each rat. […]

## [Ru+2].c1ccc(-c2ccccn2)nc1.c1ccc(-c2ccccn2)nc1.c1ccc(-c2ccccn2)nc1 [Ru(bpy)3^2+, tris(2,2′-bipyridyl)ruthenium(II)]
[1]
  volume of distribution (fluorescent volume): 9.0 µL
[2]
  Electrophoretic Mobility (μep): 25.86 ± 0.02 10^−9 m^2/Vs
[3]; calculated
  Vd at 10% of I0: 260 µL
[3]; open tube catheter, mean±SEM
  Vd at 25% of I0: 13.0 ± 2.0 µL

— patent US11471674B2, “Electroosmotic convection-enhanced delivery system” (University of Pittsburgh—Of the Commonwealth System of …, priority 2012, dated 2022)
